# Experimental data from EP4711356A1, “TETRAHYDROCARBAZOLE DERIVATIVE, PHARMACEUTICAL COMPOSITION, AND USE THEREOF” (Nain Biotech (Hangzhou) Co., Ltd., priority 2023, dated 2024).
# Tested on: HeLa cells
# Assay: Cell-based pharmacodynamic assay (CellTiter-Glo proliferation inhibition), HeLa
# Conditions: human cervical cancer HeLa cells; 72 hours incubation; CellTiter-Glo luminescence; read-out: IC50 against HeLa cells
# Experimental: Complete media such as RPMI 1640 (Gibco, A1049101), EMEM (ATCC, 30-2003), DMEM (Gibco, C11995500CP), McCoy's 5A (Gibco, 16600082), and F-12K (ATCC, 30-2004) were prepared by supplementing with varying concentrations of FBS (Biological Industries, 04-002-1A) and 1% Penicillin-Streptomycin (Gibco, 15140122) and was thoroughly mixed. Tumor cell lines including HeLa (ATCC, CCL-2; EMEM + 10% FBS), TOV-21G (Cobioer, CBP60292; 1:1 mixture of MCDB 105 and Medium 199 + 15% FBS), OVCAR-3 (ATCC, HTB-161; RPMI 1640 + 20% FBS + 0.01 mg/ml bovine insulin), SK-OV-3 (ATCC, HTB-77; McCoy's 5A + 10% FBS), A2780 (Cobioer, CBP60283; RPMI 1640 + 10% FBS), OC316 (Cobioer, CBP60620; RPMI 1640 + 10% FBS), HuH-7 (Cobioer, CBP60202; DMEM + 10% FBS), SNU-398 (ATCC, CRL-2233; RPMI 1640 + 10% FBS), NCI-H2286 (ATCC, CRL-5938; RPMI 1640 + 5% FBS), NCI-H82 (ATCC, HTB-175; RPMI 1640 + 10% FBS), A549 (ATCC, CCL-185; F-12K + 10% FBS), SK-MEL-3 (ATCC, HTB-69; McCoy's 5A + 15% FBS), PSN-1 (Cobioer, CBP61215; RPMI 1640 + 10% FBS), LoVo (ATCC, CCL-229; F-12K + 10% FBS), DLD-1 (ATCC, CCL-221; RPMI 1640 + 10% FBS), HCT-15 (ATCC, CCL-225; RPMI 1640 + 10% FBS), A498 (ATCC, HTB-44; EMEM + 10% FBS), LNCaP (ATCC, CRL-1740; RPMI 1640 + 10% FBS), SNU-1 (ATCC, CRL-5971; RPMI 1640 + 10% FBS), SCC-9 (Cobioer, CBP60428; DMEM/F12 (1:1) + 10% FBS + 0.5 mM sodium pyruvate + 400 ng/ml hydrocortisone), SU-DHL-5 (ATCC, CRL-2958; RPMI 1640 + 10% FBS), Toledo (ATCC, CRL-2631; RPMI 1640 + 10% FBS), and SJCRH30 (ATCC, CRL-2061; RPMI 1640 + 10% FBS) were thawed. Cells were passaged approximately twice, and those in good growth condition (typically passages 4-6) were selected for experiments. The medium was aspirated, and the cells were washed once with 0.25% trypsin (Invitrogen, 25200-072). The waste liquid was discarded, and 3 mL of fresh trypsin was added to the culture flask for digestion. When the cells began to detach, 9 mL of complete medium was added to neutralize the trypsin digestion, and the mixture was gently mixed. The cell suspension was transferred to a centrifuge tube using a pipette and centrifuged at 1000 rpm for 5 minutes. The supernatant was discarded, and 5 mL of medium was added to the centrifuge tube to gently resuspend the cells evenly. The cell concentration was adjusted to 1×10^4/mL-3×10^4/mL using a cell counter (Beckman Coulter, Vi-cellTM XR). The cell suspension was added to a 96-well plate (Corning, 3903) at 100 µL/well. The plate was labeled with details such as cell name, seeding density, and date, and then placed in a CO2 incubator (Thermo, Thermo 3111) overnight. Test compounds were prepared as 20 mM stock solutions in DMSO (Sigma, D4540-1L) and added to the corresponding cell wells using an HPD300 automated dispenser according to the designed layout. The plates were incubated in a 37°C, 5% CO2 incubator for 72 hours. CellTiter-Glo Buffer was thawed at room temperature. The lyophilized CellTiter-Glo substrate was equilibrated to room temperature. The CellTiter-Glo Buffer was added to the CellTiter-Glo substrate and thoroughly mixed. The cell plates were removed and equilibrated to room temperature, and 50 µL of the mixed CellTiter-Glo reagent was added to each well. The plates were protected from light and shaken for 10 minutes, followed by incubation for 10 minutes. The plates were placed in an Enspire reader (luminescence measurement time: 0.5 s) to record luminescence results. The inhibition rate was calculated using the following formula: Inhibition rate (%) = (1 - (RLU_compound - RLU_blank) / (RLU_DMSO - RLU_blank)) × 100%. Dose-response curves were plotted using XLFit to calculate IC50 values. A four-parameter model was used: [fit = (A + ((B - A) / (1 + ((C/x) ^ D)))]. The test results for HeLa cells are shown in Table 1. Table 1: IC50 values of some test compounds against human cervical cancer HeLa cells
row,SMILES,IC50
1,CCOC(=O)c1cccc2c1c1c(n2C(=O)/C=C/C(=O)OC)C(=O)CCC1 [Compound C15],≤ 200 nM
2,CCCCCOC(=O)n1c2c(c3c(C(=O)OCC)cccc31)CCCC2=O [Compound C16],≤ 200 nM
3,CCOC(=O)c1cccc2c1c1c(n2C(=O)C2CCOCC2)C(=O)CCC1 [Compound C17],≤ 200 nM
4,CCOC(=O)c1cccc2c1c1c(n2C(=O)OC2CCN(C)CC2)C(=O)CCC1 [Compound C18],≤ 200 nM
5,CCOC(=O)c1cccc2c1c1c(n2C(=O)c2ccc(F)cc2)C(=O)CCC1 [Compound C19],≤ 200 nM
6,CCOC(=O)c1cccc2c1c1c(n2C(=O)c2ccc(Cl)cc2)C(=O)CCC1 [Compound C20],≤ 200 nM
7,CCOC(=O)c1cccc2c1c1c(n2C(=O)c2ccc(OC)cc2)C(=O)CCC1 [Compound C21],≤ 200 nM
8,C#Cc1cccc(C(=O)n2c3c(c4c(C(=O)OCC)cccc42)CCCC3=O)c1 [Compound C22],≤ 200 nM
9,CCOC(=O)c1cccc2c1c1c(n2C(=O)c2ccc(C)cc2)C(=O)CCC1 [Compound C23],≤ 200 nM
10,CCOC(=O)c1cccc2c1c1c(n2C(=O)C2CCN(C)CC2)C(=O)CCC1 [Compound C24],≤ 200 nM
11,CCOC(=O)c1cccc2c1c1c(n2C(=O)c2ccccc2OC)C(=O)CCC1 [Compound C25],≤ 200 nM
12,CCOC(=O)c1cccc2c1c1c(n2C(=O)c2ncoc2C)C(=O)CCC1 [Compound C26],≤ 200 nM
13,CCOC(=O)c1cccc2c1c1c(n2C(=O)c2ccc(C)cn2)C(=O)CCC1 [Compound C27],≤ 200 nM
14,CCOC(=O)c1cccc2c1c1c(n2C(=O)/C=C/c2ccc(O)c(OC)c2)C(=O)CCC1 [Compound C29],≤ 200 nM
15,CCOC(=O)c1cccc2c1c1c(n2C(=O)C2OC2C)C(=O)CCC1 (stereo not drawn) [Compound C30],≤ 200 nM
16,CCOC(=O)c1cccc2c1c1c(n2C(=O)c2ccccc2O)C(=O)CCC1 [Compound C31],≤ 200 nM
17,CCOC(=O)c1cccc2c1c1c(n2C(=O)c2cc(C)cc(OCC)n2)C(=O)CCC1 [Compound C32],≤ 200 nM
18,CCOC(=O)c1cccc2c1c1c(n2C(=O)CN2CCN(C)CC2)C(=O)CCC1 [Compound C34],≤ 200 nM
19,CCOC(=O)c1cccc2c1c1c(n2C(=O)CC2CCOCC2)C(=O)CCC1 [Compound C35],≤ 200 nM

row,SMILES,IC50
1,CCOC(=O)c1cccc2c1c1c(n2C(=O)C2(c3ccc4c(c3)OC(F)(F)O4)CC2)C(=O)CCC1 [Compound C36],≤ 200 nM
2,CCOC(=O)c1cccc2c1c1c(n2C(=O)C2COC2)C(=O)CCC1 [Compound C38],≤ 200 nM
3,CCOC(=O)c1cccc2c1c1c(n2C(=O)CCCCCN)C(=O)CCC1 [Compound C42],≤ 200 nM
4,CCOC(=O)c1cccc2c1c1c(n2C(=O)C#CC2(C)COC2)C(=O)CCC1 [Compound C43],≤ 200 nM
5,CCOCCOCC(=O)n1c2c(c3c(C(=O)OCC)cccc31)CCCC2=O [Compound C44],≤ 200 nM
6,CCOC(=O)c1cccc2c1c1c(n2C(=O)C2(C)CCOCC2)C(=O)CCC1 [Compound C45],≤ 200 nM
7,CCOC(=O)c1cccc2c1c1c(n2C(=O)C2(F)CCOCC2)C(=O)CCC1 [Compound C49],≤ 200 nM
8,CCOC(=O)c1cccc2c1c1c(n2C(=O)CCCN(C)C)C(=O)CCC1 [Compound C50],≤ 200 nM
9,CCOC(=O)c1cccc2c1c1c(n2C(=O)CCCCC(F)F)C(=O)CCC1 [Compound C51],≤ 200 nM
10,CCCCCC(=O)n1c2c(c3c(-c4cnn(C(C)C)c4)cccc31)CCCC2=O [Compound C52],≤ 200 nM
11,CCOC(=O)c1cccc2c1c1c(n2C(=O)CCCCCO)C(=O)CCC1 [Compound C55],≤ 200 nM
12,CCOC(=O)c1cccc2c1c1c(n2C(=O)C2CC3(CC(C(=O)O)C3)C2)C(=O)CCC1 (stereo not drawn) [Compound C56],≤ 200 nM
13,CCOC(=O)c1cccc2c1c1c(n2C(=O)c2c[nH]cc2C(F)(F)F)C(=O)CCC1 [Compound C57],≤ 500 nM
14,CCOC(=O)c1cccc2c1c1c(n2C(=O)[C@@H](C)OCc2ccccc2)C(=O)CCC1 [Compound C58],≤ 200 nM
15,CCOC(=O)c1cccc2c1c1c(n2C(=O)/C=C/c2ccc(OC)c(OC)c2)C(=O)CCC1 [Compound C59],≤ 200 nM
16,Cn1cc(-c2cccc3c2c2c(n3C(=O)C3CC(F)(F)C3)C(=O)CCC2)cn1 [Compound C60],≤ 200 nM
17,Cc1ccc2[nH]c3c(c2c1)CCCC3=NCC(C)(C)O [Compound E03],≤ 500 nM
18,Cc1ccc2[nH]c3c(c2c1)CCCC3=N[C@@H]1CCNC1 [Compound E04R],≤ 200 nM
19,Cc1ccc2[nH]c3c(c2c1)CCCC3=N[C@@H]1CCN(C)C1 [Compound E05R],≤ 200 nM

row,SMILES,IC50
1,Cc1ccc2[nH]c3c(c2c1)CCCC3=NCC1(C)NC(=O)NC1=O (stereo not drawn) [Compound E07],≤ 200 nM
2,Cc1ccc2[nH]c3c(c2c1)CCCC3=NC1(CO)CCC1 [Compound E08],≤ 200 nM
3,Cc1ccc2[nH]c3c(c2c1)CCCC3=NC1CC(C(N)=O)C1 (stereo not drawn) [Compound E09],≤ 500 nM
4,Cc1ccc2[nH]c3c(c2c1)CCCC3=NCC(=O)OC(C)(C)C [Compound E10],≤ 200 nM
5,Cc1ccc2[nH]c3c(c2c1)CCCC3=NCCNCCO [Compound E11],≤ 200 nM
6,Cc1ccc2[nH]c3c(c2c1)CCCC3=NC1CCN(C)CC1 [Compound E13],≤ 200 nM
7,Cc1ccc2[nH]c3c(c2c1)CCCC3=NC(CO)CO [Compound E14],≤ 200 nM
8,COC(=O)c1cccc2[nH]c3c(c12)CCCC3=NCC(=O)OC(C)(C)C [Compound E29],≤ 200 nM
9,COC(=O)c1cccc2[nH]c3c(c12)CCCC3=NCCO [Compound E30],≤ 200 nM
10,Cc1ccc2[nH]c3c(c2c1)CCCC3=NCCOCCO [Compound E31],≤ 200 nM
11,[2H]C([2H])([2H])c1ccc2[nH]c3c(c2c1)CCCC3=NCC(=O)OC(C)(C)C [Compound E32],≤ 200 nM
12,COc1ccc2[nH]c3c(c2c1)CCCC3=NCC(=O)OC(C)(C)C [Compound E33],≤ 500 nM
13,COC(=O)c1ccc2[nH]c3c(c2c1)CCCC3=NCC(=O)OC(C)(C)C [Compound E34],≤ 200 nM
14,COc1ccc2[nH]c3c(c2n1)CCCC3=NCC(=O)OC(C)(C)C [Compound E35],≤ 200 nM
15,COC(=O)c1ccc2[nH]c3c(c2c1)CCCC3=NCCO [Compound E36],≤ 200 nM
16,COc1ccc2[nH]c3c(c2n1)CCCC3=NCCO [Compound E37],≤ 200 nM
17,Cc1ccc2[nH]c3c(c2c1)CCC/C3=N\[C@@H](Cc1ccccc1)C(=O)OC(C)(C)C [Compound E38],≤ 200 nM
18,Cc1ccc2[nH]c3c(c2c1)CCCC3=NC(CC(N)=O)C(=O)OC(C)(C)C (stereo not drawn) [Compound E39],≤ 200 nM
19,Cc1ccc2[nH]c3c(c2c1)CCCC3=NC(Cc1ccc(O)cc1)C(=O)OC(C)(C)C (stereo not drawn) [Compound E40],≤ 200 nM
